Blank lines part the entries; values can stand above or below the molecule they belong to.
Experiments:
Format in all cases: cell-based, Human
SaOS-2 cells [1] = assay: Number of SaOS-2 cells per well (FIG. 3); conditions: for effect on number of SaOS-2 cells per well: polyP 50 μM where present
Procedure: Only at a very high concentration, LaCl3 caused a strong drop of SaOS-2 cell number.
(§1) Human osteogenic sarcoma SaOS-2 cells are cultured in McCoy's medium (Biochrom, Berlin; Germany) containing 5 mM Na-phosphate and 1 mM CaCl2, supplemented with 15% heat inactivated fetal calf serum (FCS), Na-pyruvate (1 mM), Ca(NO3)2 (0.5 mM), penicillin (100 U/ml), and streptomycin (100 μg/ml), in 6-well plates (surface area 9.46 cm^2; Orange Scientifique, Braine-l'Alleud; Belgium) in a humidified incubator at 37° C. and 5% CO2. Routinely, 2×10^4 cells are added per well (total volume 3 ml).

SaOS-2 cells [2] = assay: HA mineralization with LaCl3 / polyP, Alizarin Red S OD 570 nm (FIG. 5, 6)
Procedure: The cells were grown for 4 days in the absence of the activation cocktail (AC) and then for further 7 days (i) in the absence or (ii) in the presence of the activation cocktail with increasing concentrations of LaCl3 without (A) or with (B) 50 μM polyP (polyP•La complex). At the end of the incubation period, HA mineralization was determined by incubation of the cultures with Alizarin Red S in the spectrophotometric assay. […] The OD values at 570 nm measured in the spectrophotometric assay in the absence of the activation cocktail had been subtracted from the OD values at 570 nm measured in the presence of the activation cocktail, and the HA formation in the absence of LaCl3 and polyP (FIG. 5 A) was set to 100%.
The data shown in FIG. 5 had been normalized by the number of cells which had been determined in parallel assays. […] The HA formation in the absence of LaCl3 and polyP (FIG. 6 A) was set to 100%.
Similar results were obtained if the values were normalized by cell number (FIG. 6).

SaOS-2 cells [3] = assay: SEM analysis of HA nodules; conditions: 5 μM, activated cultures, 5 days
Procedure: In this assay Me was Gd. 5 μM of each compound were added to the cells, and the cells were analysed by SEM. The cell cultures were incubated for 5 days either (A) in the absence or (B) in the presence of the activation cocktail. (C) and (F) show incubation of the activated cells with MeCl3; (D) and (G) show incubation of the activated cells with polyP, and (E) and (H) show incubation of the activated cells with polyP•Me. Some nodules (no) and cell layers (c) are marked.
To assure that the increased Alizarin Red S staining is due to a higher HA (Ca-phosphate) deposition SEM analyses were performed. In the absence of the activation cocktail no nodules could be identified on the cells (FIG. 7A). In contrast, if the cells were incubated with the cocktail for 5 days, distinct HA nodules could be identified (FIG. 7B). In the presence of the activation cocktail the cultures were incubated with MeCl3 (FIG. 7C), polyP (FIG. 7D), or both components together, as polyP•Me (FIG. 7E). It is apparent that the density of the nodules in activated cultures incubated with MeCl3 or with polyP alone was lower, compared to polyP•Me. At higher magnification it could be observed that the nodules consisted of irregularly arranged prism-like nanorods (FIGS. 7F to H). […]

SaOS-2 cells [4] = assay: HA mineralization, Alizarin Red S staining and spectrophotometric assay (FIG. 4); conditions: 5 μM, Me = Gd
Procedure: In this assay Me was Gd. The cells were incubated with 5 μM of each of the compounds. FIG. 4 A: The cells were grown for 7 d in the (a) absence or (b) presence of activation cocktail (AC=50 μM ascorbic acid, 10 nM dexamethasone and 1 mM β-glycerophosphate). In separate experiments the cultures were incubated with the activation cocktail and additionally with (c) MeCl3, (d) polyP, or (e) polyP•Me. After incubation, the cell assays were stained with Alizarin Red S to assess the degree of […]. The diameter of the wells was 15 mm. FIG. 4 B: To quantitatively determine the HA mineralization in SaOS-2 cells, the cultures were assayed at the end of the incubation with Alizarin Red S (AR) in the spectrophotometric assay. […]
The intensity of the Alizarin Red colorimetric reaction at the used concentration range is proportional to the extent of mineralization (HA formation), as determined by using a calibration curve. The values measured (given in nmoles of Alizarin Red S bound) were normalized to the total amount of DNA (given in μg) which is proportional to cell number (the amount of DNA per cell is assumed to remain constant during the experiment). […]
The influence of trivalent cations on the extent of mineralization of SaOS-2 cells was determined in vitro using McCoy's medium/10% FCS and applying Alizarin Red S as a dye to monitor HA formation. […]

SaOS-2 cells [5] = assay: MTT colorimetric proliferation/viability assay; conditions: tested concentration range of 0.3 to 30 μM; Me = Gd
Procedure: In this assay Me was Gd. The recordings of developed formazan dye in the control (filled bar) were set to 100%. The results are expressed as means (n=10 experiments each)±SEM.
The effects of polyP•Me as well as of the single components polyP and MeCl3 on proliferation/viability of SaOS-2 cells were determined by applying the MMT colorimetric assay (MMT=3-(4,5-dimethylthiazol-2-yl)-2,5-diphenyltetrazolium bromide).
as §1
SaOS-2 cells are seeded at a density of 2×10^4 cells per 3-ml well in a 24-multi-well plate (Orange Scientifique) and cultured for 3 days in McCoy's medium/15% FCS. Increasing concentrations of MeCl3, polyP or polyP•Me are added to the cultures. After incubation, cell proliferation is determined applying the colorimetric method based on the tetrazolium salt […].

BMP2 = assay: qRT-PCR BMP2 gene expression; conditions: 5 μM

effect on number of SaOS-2 cells per well (SaOS-2 cells [1]; 0.1 mM AlCl3 and higher): strong reduction
Compound: [Cl][Al]([Cl])[Cl] [AlCl3]

effect on number of SaOS-2 cells per well (SaOS-2 cells [1]; 0.05 mM to 1 mM LaCl3): did not significantly affect
effect on SaOS-2 cell number (SaOS-2 cells [1]; very high concentration of LaCl3): strong drop
Compound: [Cl][La]([Cl])[Cl] [LaCl3]
HA formation (SaOS-2 cells [2]; 0.05 mM LaCl3, absence of polyP, activation cocktail 7 days): marked increase
stimulatory effect on HA formation (SaOS-2 cells [2]; LaCl3 0.5 mM and higher, absence of polyP): not observed any more

Compound: [Cl][Gd]([Cl])[Cl] [MeCl3, GdCl3]
density of HA nodules compared to polyP•Me (SaOS-2 cells [3]): lower
Alizarin Red S bound normalized to total DNA (HA mineralization) (SaOS-2 cells [4]; 7 days after the addition of the activation cocktail): 0.61 ± 0.08 nmol/µg
Alizarin Red S staining intensity / HA formation (SaOS-2 cells [4]; in the presence of the activation cocktail, 7 d): intensified the staining intensity
viability/proliferation of SaOS-2 cells (development of the dye formazan) (SaOS-2 cells [5]): did not change
BMP2 expression level versus day 5 (BMP2; 7 days): remained unchanged
increase in steady-state expression of BMP2 (BMP2; day 5, normalized to GAPDH): 1.4 fold
